Where no end group is shown, it is not given here.
Experiments:
[1] = oral administration; cited from earlier work
[2] = pH 5.5 to 6.0; cited from earlier work
[3] = system: calcium concentration in plasma; test: Comparison of calcium reduction effect of sCT and PEG-sCT after nasal administration to rats; assay type: in vivo, SD (Sprague Dawley) male rat; conditions: Time 960 (minutes after nasal administration); rat, n = 4; plasma calcium as ratio to primary value
[4] = system: calcium concentration in plasma; test: as above; assay type: in vivo, SD (Sprague Dawley) male rat; conditions: rat; for plasma calcium as % of pre-dose value: n = 4, plasma calcium as ratio to primary value
Method: SD (Sprague Dawley) male rat (220-300 g, Charles River Japan, Atsugi, Japan) was put under anesthesia by administrating 45 mg/kg of peptobarbital into interperitoneal. Bronchus and esophagus were cannulated with PE-250 tube and thigh arteria with SP-45 tube. 20 ul of a placebo and experimental drugs were administered into the nasal cavity of rats with a Hamilton syringe. The placebo used physiological saline and the experimental drug used PEG5000-sCT, PEG12000-sCT, PEG2000-sCT and sCT prepared from the Example 2. Salmon calcitonin was administered at dose of 0.05 to 4.5 IU per rat, and rats were grouped into 4. 200 ul of blood was taken at before, 5, 10, 30, 60, 120, 240, 480 and […] after the placebo and the experimental drugs were administered, and immediately centrifuged to obtain 100 ul of plasma. The calcium concentration in plasma was measured using a calcium assay kit (Sigma, USA), and calcium remaining efficiency was calculated as the calcium concentration before administration was 100. The unit of the measured calcium concentration in plasma was mg/dl, and the remaining efficiency was calculated as the ratio (%) to the primary value.
After the remaining coefficient was calculated according to each time, area-under the curve (AUC) was calculated about the average value of remaining coefficient at each time per experimental group. The reduction ratio of calcium concentration was calculated by the mathematical formula 1, and the results were represented in the table 1 (FIG. 6).
? ΓD(%)=(AUCCa-plac−AUCCa-sCT)/AUCCa-plac ? ┐100
where, AUCCa-plac was AUC from placebo administration to 960 minutes, and AUCCa-sCT was AUC from calcitonin and experimental drugs administration to 960 minutes.

[5] = nasal transmucosal administration

Substance	absorption half life [1] [min]	bioavailability [1] [%]	elimination half life [1] [min]	stability in acetate buffer [2]	plasma calcium as % of pre-dose value [3] [%]	plasma calcium as % of pre-dose value ([4]; Time 0 (before administration = 100), nasal cavity) [%]	plasma calcium as % of pre-dose value ([4]; Time 5 (minutes after nasal administration)) [%]	plasma calcium as % of pre-dose value ([4]; Time 10 (minutes after nasal administration)) [%]	plasma calcium as % of pre-dose value ([4]; Time 30 (minutes after nasal administration)) [%]	plasma calcium as % of pre-dose value ([4]; Time 60 (minutes after nasal administration)) [%]	plasma calcium as % of pre-dose value ([4]; Time 120 (minutes after nasal administration)) [%]	plasma calcium as % of pre-dose value ([4]; Time 240 (minutes after nasal administration)) [%]	plasma calcium as % of pre-dose value ([4]; Time 480 (minutes after nasal administration)) [%]	time after which calcium concentration restored at the original concentration [4, 5] [h]	time for which the calcium concentration was decreased / reduction effect represented after the nasal transmucosal administration [4, 5] [h]
His-Asp-Tyr-Ala-Tyr-Asp-Lys-NH2 (HDYAYDK-NH2) [GHRP-6]	15	0.3	60	very stable	–	–	–	–	–	–	–	–	–	–	–
salmon calcitonin [sCT]	–	–	–	–	101	100	98.9	93.7	95	98.7	97.8	100.3	101.6	2	1

Source: US6506730B1, “Nasal transmucosal delivery of peptide conjugated with biocompatible polymers” (priority 1999, dated 2003)
